According to patent publication US20230406865A1, “CRYSTAL FORM OF FREE BASE OF INHIBITOR CONTAINING BICYCLIC RING DERIVATIVE AND PREPARATION METHOD AND APPLICATION OF CRYSTAL FORM” (SHANGHAI HANSOH BIOMEDICAL CO., LTD., priority 2020, published 2023):

Legend:
RET M918T = target: T1, RET M918T (Homo sapiens, UniProt P07949, M918T); assay: HTRF kinase activity inhibition, RET M918T; type: biochemical; conditions: ATP at Km
T1 construct: purchased Carna 08-508
From the text: (§1) 2.2 Experimental Reagents: • RET enzyme was purchased from Carna Company, and the article number was 08-159; • RET M918T enzyme was purchased from Carna Company, and the article number was 08-508; • KIF5B-RET was purchased from SignalChem Company, the article number was R02-19FG-05; • CCDC6-RET was purchased from SignalChem Company, the article number was R02-19BG-05; • RET V804M enzyme was purchased from Thermofisher Company, and the article number was PV6223; • RET V804L enzyme was purchased from Thermofisher Company, and the article number was PV4397; • HTRF KinEASE-TK kit was purchased from Cisbio Company, and the article number was 62TK0PEC; • ATP was purchased from Thermofisher Company, and the article number was PV3227; • 384-well plate was purchased from PerkinElmer Company, and the article number was 6007290.
(§2) In this experiment, a homogeneous time-resolved fluorescence (HTRF) method was used for the detection of compounds on RET kinase activity.

[1] = test system: subcutaneous transplanted tumor of Ba/F3 KIF5B-RET cells; assay: Tumor suppression on Ba/F3 KIF5B-RET transplanted tumor model; type: in vivo, BALB/c nude mice
Method: Ba/F3 KIF5B-RET cells were removed from the cell bank, resuscitated and added to RPMI1640 medium (RPMI1640+10% FBS+1% Glu+1% P/S), then cultured in a CO2 incubator (incubator temperature was 37° C., CO2 concentration was 5%), and when the cell number expanded to the required number for in vivo inoculation, Ba/F3 KIF5B-RET cells were collected. The cells were counted with an automatic cell counter, resuspended with PBS according to the count results, made into a cell suspension (density was 2×10^7/mL), and placed in an ice box for use.
Female BALB/c nude mice aged 6-8 weeks were used, weighing about 18-22 g. Mice were reared in SPF animal room, and were reared in a single cage with 5 mice in each cage. All cages, bedding and water were sterilized at high temperature before use, and all animals were allowed to eat and drink freely. Nude mice were labeled with disposable universal ear tags for mice and rats before the start of the experiment, and the skin of the inoculation site was disinfected with 75% medical alcohol before inoculation. 0.1 mL (containing 2*10^6 cells) of Ba/F3 KIF5B-RET cells were inoculated subcutaneously on the right back of each mouse. Group administration was initiated when the tumor volume reached 60-200 mm^3, with 5 mice in each group. Each test compound was administered orally twice a day for 14 days. The tumor volume and the weight of mice were measured twice a week, and the tumor TGI (%) was calculated.
The tumor volume (mm^3) was calculated as V=0.5*D*d*d, where D and d were the long and short diameters of the tumor, respectively.
When there was no tumor regression, TGI (%)=[(1-(mean tumor volume at the end of the administration in a treatment group−mean tumor volume at the start of administration in the treatment group))/(mean tumor volume at the end of treatment in the solvent control group−mean tumor volume at the start of treatment in the solvent control group)]×100%.
When there was tumor regression, TGI (%)=[1-(mean tumor volume at the end of administration in a treatment group−mean tumor volume at the beginning of administration in the treatment group)/mean tumor volume at the beginning of administration in the treatment group]×100%.

[2] = Balb/C mouse pharmacokinetics, oral 5 mg/kg; type: in vivo, Balb/C mice; conditions: male, p.o. 5 mg/kg, plasma; for MRT: read-out: Average residence time MRT; for Cmax: read-out: Blood concentration Cmax; for AUC(0-t): read-out: Curve area AUC0-t; for AUC(0-inf): read-out: Curve area AUC0-∞; for half-life: read-out: Half-life t1/2 (converted); for Tmax: read-out: Peak time tmax
Outline: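 Male Balb/C mice (6 per compound) were fasted overnight and dosed in 0.5% CMC-Na (1% Tween80) solution or suspension. EDTA-K2 plasma was sampled at 0, 0.5, 1, 2, 4, 6, 8 and 24 h. Compound levels were measured by LC/MS/MS after acetonitrile precipitation, and PK parameters were derived from the plasma profiles.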

RET V804M = target: T2, RET V804M (Homo sapiens, UniProt P07949, V804M); assay: HTRF kinase activity inhibition, RET V804M; type: biochemical; conditions: ATP at Km
T2 construct: purchased Thermofisher PV6223
From the text: as §1, §2

RET kinase = target: T3, RET kinase (Homo sapiens, UniProt P07949); assay: HTRF kinase activity inhibition, RET wild-type; type: biochemical; conditions: ATP at Km
T3 construct: purchased Carna 08-159
Outline: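 HTRF (KinEASE-TK) kinase assay with recombinant RET wild-type, RET V804M, RET V804L and KIF5B-RET enzymes plus ATP.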

KDR kinase = target: T4, KDR kinase (Homo sapiens, UniProt P35968); assay: HTRF kinase activity inhibition, KDR; type: biochemical; conditions: for IC50: HTRF, ATP at Km; for Ratio (KDR/RET): KDR IC50 / RET IC50
T4 construct: purchased Carna 08-191
Outline: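 Inhibition of KDR kinase activity measured by homogeneous time-resolved fluorescence with a tyrosine-kinase KinEASE substrate kit and ATP.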

RET V804L = target: T5, RET V804L (Homo sapiens, UniProt P07949, V804L); assay: HTRF kinase activity inhibition, RET V804L; type: biochemical; conditions: ATP at Km
T5 construct: purchased Thermofisher PV4397
From the text: as §1, §2

T4 sequence (P35968 20-1356): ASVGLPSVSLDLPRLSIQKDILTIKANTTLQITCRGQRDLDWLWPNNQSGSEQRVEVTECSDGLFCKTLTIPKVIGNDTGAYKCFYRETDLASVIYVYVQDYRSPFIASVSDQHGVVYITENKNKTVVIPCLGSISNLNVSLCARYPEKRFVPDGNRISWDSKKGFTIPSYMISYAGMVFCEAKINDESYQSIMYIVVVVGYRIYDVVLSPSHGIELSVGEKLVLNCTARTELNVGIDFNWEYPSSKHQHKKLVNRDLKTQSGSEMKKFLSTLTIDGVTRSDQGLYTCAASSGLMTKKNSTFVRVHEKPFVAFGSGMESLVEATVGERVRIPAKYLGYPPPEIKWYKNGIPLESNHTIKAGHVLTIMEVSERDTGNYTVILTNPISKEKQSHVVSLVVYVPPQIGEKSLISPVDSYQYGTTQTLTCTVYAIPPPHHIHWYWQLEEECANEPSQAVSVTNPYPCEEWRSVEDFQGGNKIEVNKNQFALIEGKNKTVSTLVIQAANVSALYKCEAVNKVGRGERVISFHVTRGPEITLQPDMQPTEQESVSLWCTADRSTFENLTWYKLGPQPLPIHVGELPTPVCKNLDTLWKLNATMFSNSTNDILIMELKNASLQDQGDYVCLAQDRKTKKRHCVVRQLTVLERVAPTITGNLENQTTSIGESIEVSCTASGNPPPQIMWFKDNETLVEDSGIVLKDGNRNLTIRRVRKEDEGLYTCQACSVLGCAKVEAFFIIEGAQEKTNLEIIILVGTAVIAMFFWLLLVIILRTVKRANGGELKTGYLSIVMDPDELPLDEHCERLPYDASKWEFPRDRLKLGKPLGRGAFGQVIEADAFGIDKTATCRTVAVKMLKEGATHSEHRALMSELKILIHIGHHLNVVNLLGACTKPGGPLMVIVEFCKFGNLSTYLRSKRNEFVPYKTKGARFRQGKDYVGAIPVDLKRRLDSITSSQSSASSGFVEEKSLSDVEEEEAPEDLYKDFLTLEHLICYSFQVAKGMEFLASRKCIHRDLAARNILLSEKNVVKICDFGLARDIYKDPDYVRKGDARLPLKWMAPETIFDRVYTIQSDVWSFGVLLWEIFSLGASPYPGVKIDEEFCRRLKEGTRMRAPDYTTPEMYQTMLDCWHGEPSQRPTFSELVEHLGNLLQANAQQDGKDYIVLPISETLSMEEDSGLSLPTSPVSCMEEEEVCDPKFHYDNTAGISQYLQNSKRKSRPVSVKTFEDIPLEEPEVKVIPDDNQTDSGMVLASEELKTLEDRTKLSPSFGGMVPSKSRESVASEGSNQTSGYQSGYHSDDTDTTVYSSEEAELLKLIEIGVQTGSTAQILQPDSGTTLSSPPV
T5 sequence (P07949 29-1114 V804L): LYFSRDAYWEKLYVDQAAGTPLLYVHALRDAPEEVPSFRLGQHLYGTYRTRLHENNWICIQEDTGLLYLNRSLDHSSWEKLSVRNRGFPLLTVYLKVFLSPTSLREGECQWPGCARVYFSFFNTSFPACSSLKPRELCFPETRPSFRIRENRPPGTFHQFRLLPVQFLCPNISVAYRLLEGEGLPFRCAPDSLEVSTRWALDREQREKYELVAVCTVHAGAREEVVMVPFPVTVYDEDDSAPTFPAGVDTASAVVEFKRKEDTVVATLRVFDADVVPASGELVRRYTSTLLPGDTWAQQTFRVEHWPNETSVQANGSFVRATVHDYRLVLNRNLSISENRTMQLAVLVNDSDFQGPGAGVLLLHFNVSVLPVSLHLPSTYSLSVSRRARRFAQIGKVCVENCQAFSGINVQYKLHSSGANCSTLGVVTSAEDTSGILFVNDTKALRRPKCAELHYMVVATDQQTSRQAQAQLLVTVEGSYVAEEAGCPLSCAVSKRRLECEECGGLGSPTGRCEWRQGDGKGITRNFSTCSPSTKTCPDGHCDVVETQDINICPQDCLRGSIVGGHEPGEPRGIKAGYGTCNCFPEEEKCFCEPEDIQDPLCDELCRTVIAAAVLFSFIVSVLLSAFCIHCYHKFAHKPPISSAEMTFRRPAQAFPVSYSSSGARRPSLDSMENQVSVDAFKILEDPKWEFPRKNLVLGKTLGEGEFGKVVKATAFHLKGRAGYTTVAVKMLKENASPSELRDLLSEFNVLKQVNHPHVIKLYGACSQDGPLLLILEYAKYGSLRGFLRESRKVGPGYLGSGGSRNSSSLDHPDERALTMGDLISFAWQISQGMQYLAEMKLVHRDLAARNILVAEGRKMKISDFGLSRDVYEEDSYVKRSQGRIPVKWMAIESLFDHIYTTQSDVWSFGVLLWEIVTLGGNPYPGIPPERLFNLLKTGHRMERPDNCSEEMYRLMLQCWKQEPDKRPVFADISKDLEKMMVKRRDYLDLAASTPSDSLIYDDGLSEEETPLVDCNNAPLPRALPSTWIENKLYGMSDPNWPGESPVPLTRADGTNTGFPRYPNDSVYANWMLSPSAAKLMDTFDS
T1 sequence (P07949 29-1114 M918T): as the sequence (P07949 29-1114 V804L) above, with L776V, M890T counted along it
T2 sequence (P07949 29-1114 V804M): as the sequence (P07949 29-1114 V804L) above, with L776M counted along it
T3 sequence (P07949 29-1114): as the sequence (P07949 29-1114 V804L) above, with L776V counted along it

Structure (SMILES)	IC50 (RET M918T)	Tumor volume (Mean ± SD) Day 0 ([1]; 30 mg/kg oral twice a day)	TGI (%) Day 14 ([1]; 30 mg/kg oral twice a day)	Tumor volume (Mean ± SD) Day 14 ([1]; 30 mg/kg oral twice a day)	MRT [2]	Cmax [2]	AUC(0-t) [2]	AUC(0-inf) [2]	half-life [2]	Tmax [2]	IC50 (RET V804M)	IC50 (RET kinase)	IC50 (KDR kinase)	Ratio (KDR/RET) (KDR kinase)	IC50 (RET V804L)	Tumor volume (Mean ± SD) Day 0 ([1]; 10 mg/kg oral twice a day)	TGI (%) Day 14 ([1]; 10 mg/kg oral twice a day)	Tumor volume (Mean ± SD) Day 14 ([1]; 10 mg/kg oral twice a day)
COc1ncc(CN2C3CC2CN(c2ccc(-c4cc(C#CC(C)(C)O)cn5ncc(C#N)c45)cn2)C3)cc1F [Embodiment 18, 4-(6-(6-((5-Fluoro-6-methoxypyridin-3-yl)methyl)-3,6-diazabicyclo[3.1.1]heptan-3-yl)pyridin-3-yl)-6-(3-hydroxy-3-methylbut-1-yn-1-yl)pyrazolo[1,5-a]pyridine-3-carbonitrile]	0.66 nM	132.34 ± 19.40 mm^3	110.35%	118.64 ± 84.34 mm^3	4.61 h	2.79 µg/mL	18.2 µg·h/mL	18.2 µg·h/mL	2.9 h	0.5 h	1.8 nM	0.31 nM	23 nM	73	0.74 nM			
C#C[C@@](C)(O)COc1cc(-c2ccc(N3CC4CC(C3)N4Cc3ccc(OC)nc3)nc2)c2c(C#N)cnn2c1 [Embodiment 63, 6-(((R)-2-hydroxy-2-methylbut-3-yn-1-yl)oxy)-4-(6-(6-((6-methoxypyridin-3-yl)methyl)-3,6-diazabicyclo[3.1.1]heptan-3-yl)pyridin-3-yl)pyrazolo[1,5-a]pyridine-3-carbonitrile]	0.21 nM				2.9 h	2.94 µg/mL	11 µg·h/mL	11 µg·h/mL	1.3 h	1 h	0.6 nM	0.34 nM	21.7 nM	63	0.24 nM	126.13 ± 17.24 mm^3	94.66%	219.86 ± 64.31 mm^3
C#C[C@](C)(O)COc1cc(-c2ccc(N3CC4CC(C3)N4Cc3ccc(OC)nc3)nc2)c2c(C#N)cnn2c1 [Embodiment 64, 6-(((S)-2-hydroxy-2-methylbut-3-yn-1-yl)oxy)-4-(6-(6-((6-methoxypyridin-3-yl)methyl)-3,6-diazabicyclo[3.1.1]heptan-3-yl)pyridin-3-yl)pyrazolo[1,5-a]pyridine-3-carbonitrile]	0.17 nM				2.7 h	3.92 µg/mL	14.5 µg·h/mL	14.5 µg·h/mL	1.2 h	1 h	3 nM	0.38 nM	44.3 nM	118	0.23 nM	126.93 ± 16.98 mm^3	88.39%	330.85 ± 147.00 mm^3
COc1ccc(CN2C3CC2CN(c2ccc(-c4cc(N5CC(C)(C#N)C5)cn5ncc(C#N)c45)cn2)C3)cn1 [Embodiment 77, 6-(3-Cyano-3-methylazetidin-1-yl)-4-(6-(6-((6-methoxypyridin-3-yl)methyl)-3,6-diazabicyclo[3.1.1]heptan-3-yl)pyridin-3-yl)pyrazolo[1,5-a]pyridine-3-carbonitrile]	0.41 nM				6 h	4.68 µg/mL	51.6 µg·h/mL	51.9 µg·h/mL	3.2 h	0.5 h	0.6 nM	0.37 nM	6.9 nM	19	0.49 nM	101.59 ± 36.86 mm^3	159.80%	40.84 ± 53.92 mm^3
